We go through three compounds from ChEMBL document CHEMBL4814050, “Identification of gallic acid as a active ingredient of Syzygium aromaticum against tacrolimus-induced damage in renal epithelial LLC-PK1 cells and rat kidney” (Bioorg Med Chem Lett, 2021).

Experiment [1] can be described thus: Antioxidant activity assessed as reduction in FK506-induced ROS production by […] assay. Particulars: dose 0.1-100 µM. Type of experiment: functional.
Experiment [2] relates to LLC-PK1. The experiment can be described thus: Cytoprotective activity against pig LLC-PK1 cells assessed as reduction in FK506-induced cytotoxicity incubated for 2 hrs followed by FK506 stimulation and measured after 24 hrs by MTT assay. Type of experiment: functional, cell-based. Particulars: Sus scrofa, dose 12.5-100 µM, time 26.0 hrs. On the technique in general: Tetrazolium assays rely on reduction of a dye to a coloured formazan, in cell work by metabolically active cells.

Experiment [3] is filed under the species Rattus norvegicus. In words: Nephroprotective activity in Sprague-Dawley rat assessed as reduction in FK506-induced kidney dysfunction by measuring decrease in serum creatinine level measured after 14 days. Type of experiment: functional, organism-based. The settings on record: time 14.0 day.

SMILES strings stand for the structures. Calls of active or inactive are those of the source. The calls are words filed in the database; no cut-off is given here.

Regarding `O=C1O[C@H]([C@@H](O)CO)C(O)=C1O`, the outcome in experiment [1] was Active.
For the compound `O=C(O)c1cc(O)c(O)c(O)c1`, the Activity entry in experiment [2] and in experiment [1] was “Dose-Dependent Effect” throughout. Besides, the result in experiment [3] was Active.
With `O=C(O[C@@H]1Cc2c(O)cc(O)cc2O[C@@H]1c1cc(O)c(O)c(O)c1)c1cc(O)c(O)c(O)c1`, the Activity entry in experiment [2] and in experiment [1] was “Dose-Dependent Effect” in each case.
